Experimental findings from ChEMBL document CHEMBL3044671, “Synthesis and in vitro antimicrobial and anti-tubercular evaluation of some quinoline-based azitidinone and thiazolidinone analogues” (2013) are described below.

Common to all, as to assay type: functional
In experiment [1] the test system is Aspergillus niger. The experiment can be described thus: Antimicrobial activity against Aspergillus niger MTCC 282 assessed as growth inhibition by agar streak dilution method.
Experiment [2] has as its system Bacillus subtilis. Description: Antimicrobial activity against Bacillus subtilis MTCC 430 assessed as growth inhibition by agar streak dilution method.
The test system of experiment [3] is Candida albicans. Description: Antimicrobial activity against Candida albicans MTCC 183 assessed as growth inhibition by agar streak dilution method.
Experiment [4] relates to Pseudomonas aeruginosa. The experiment can be described thus: Antimicrobial activity against Pseudomonas aeruginosa MTCC 741 assessed as diameter of growth zone inhibition by agar streak dilution method.
Experiment [5] has as its system Staphylococcus aureus. The experiment can be described thus: Antimicrobial activity against Staphylococcus aureus MTCC 96 assessed as growth inhibition by agar streak dilution method.
Experiment [6] relates to Aspergillus niger. Description: Antimicrobial activity against Aspergillus niger MTCC 282 assessed as diameter of growth zone inhibition by agar streak dilution method.
The subject of experiment [7] is Bacillus subtilis. Description: Antimicrobial activity against Bacillus subtilis MTCC 430 assessed as diameter of growth zone inhibition by agar streak dilution method.
In experiment [8] the test system is Escherichia coli. The experiment can be described thus: Antimicrobial activity against Escherichia coli MTCC 739 assessed as diameter of growth zone inhibition by agar streak dilution method.
Experiment [9] has as its system Staphylococcus aureus. Description: Antimicrobial activity against Staphylococcus aureus MTCC 96 assessed as diameter of growth zone inhibition by agar streak dilution method.
Experiment [10] concerns Pseudomonas aeruginosa. Description: Antimicrobial activity against Pseudomonas aeruginosa MTCC 741 assessed as growth inhibition by agar streak dilution method.
In experiment [11] the test system is Mycobacterium tuberculosis. The experiment can be described thus: Antitubercular activity against Mycobacterium tuberculosis H37Rv assessed as growth inhibition by BACTEC MGIT method.
The subject of experiment [12] is Candida albicans. Description: Antimicrobial activity against Candida albicans MTCC 183 assessed as diameter of growth zone inhibition by agar streak dilution method.
For experiment [13], the system named is Escherichia coli. The experiment can be described thus: Antimicrobial activity against Escherichia coli MTCC 739 assessed as growth inhibition by agar streak dilution method.

≈ marks a conversion by molar mass, not a printed value.

As to `O=C1C(Cl)C(c2cc3ccccc3nc2S)N1c1ccc([N+](=O)[O-])cc1` (stereo not drawn), the MIC with Aspergillus niger [1] was 12.5 µg/mL (≈ 32.4 µM); with Bacillus subtilis [2], 25 µg/mL (≈ 64.8 µM); with Candida albicans [3], 100 µg/mL (≈ 259 µM); in the experiment with Staphylococcus aureus [5], 50 µg/mL (≈ 130 µM); in the experiment on Pseudomonas aeruginosa [10], 12.5 µg/mL (≈ 32.4 µM); in experiment [11], 250 µg/mL (≈ 648 µM). The MIC in the experiment with Escherichia coli [13] came to 12.5 µg/mL (≈ 32.4 µM). Further, the “diameter of the inhibition zone (DIZ)” value is 24 mm in the experiment with Pseudomonas aeruginosa [4]; 24 mm with Aspergillus niger [6]; 24 mm with Bacillus subtilis [7]; 25 mm in the experiment with Escherichia coli [8]; 24 mm with Staphylococcus aureus [9]; 20 mm with Candida albicans [12].
